This note sets out measurements from patent US20110206770A1, “ATOVAQUONE WITH A PARTICLE SIZE DIAMETER RANGE (D90) OF GREATER THAN 3 MICRONS TO ABOUT 10 MICRONS” (Alphapharm Pty. Ltd., priority 2008, published 2011).

This data set can be described thus: D90 particle size of atovaquone by Malvern Mastersizer. Format: physicochemical. The protocol: […]

[1] abbreviates: Run 1, stir time 1 min, 30 mg in 900 mL purified water, polysorbate 80, 10 min sonication, 400 rpm.

Regarding `O=C1C(O)=C([C@H]2CC[C@H](c3ccc(Cl)cc3)CC2)C(=O)c2ccccc21` [Example 5, trans-2-[4-(4-chlorophenyl)cyclohexyl]-3-hydroxy-1,4-naphthalenedione], the D90 particle size is listed as 7.971 microns under setting [1]; 7.949 microns (Run 1, stir time 2 min); 8.215 microns (Run 1, stir time 3 min); 8.276 microns (Run 1, stir time 4 min); 7.948 microns (Run 1, stir time 5 min); 7.726 microns (Run 2, stir time 1 min). The D90 particle size came to 7.723 microns (Run 2, stir time 2 min); 7.726 microns (Run 2, stir time 3 min); 7.727 microns (Run 2, stir time 4 min); 7.723 microns (Run 2, stir time 5 min); 7.978 microns (Run 3, stir time 1 min); 7.974 microns (Run 3, stir time 2 min). For the same compound, the D90 particle size is recorded as 7.977 microns (Run 3, stir time 3 min); 7.979 microns (Run 3, stir time 4 min); 7.973 microns (Run 3, stir time 5 min).
Regarding `O=C1C(O)=C([C@H]2CC[C@H](c3ccc(Cl)cc3)CC2)C(=O)c2ccccc21` [Example 1, trans-2-[4-(4-chlorophenyl)cyclohexyl]-3-hydroxy-1,4-naphthalenedione], the D90 particle size by setting is: under setting [1], 5.088 microns; (Run 1, stir time 2 min) 5.089 microns; (Run 1, stir time 3 min) 5.090 microns; (Run 1, stir time 4 min) 5.088 microns; (Run 1, stir time 5 min) 5.088 microns; (Run 2, stir time 1 min) 5.182 microns. Moreover, the D90 particle size is, setting by setting: (Run 2, stir time 2 min) 5.183 microns; (Run 2, stir time 3 min) 5.182 microns; (Run 2, stir time 4 min) 5.183 microns; (Run 2, stir time 5 min) 5.184 microns; (Run 3, stir time 1 min) 5.049 microns; (Run 3, stir time 2 min) 5.049 microns. In addition, the D90 particle size is given as 5.048 microns (Run 3, stir time 3 min); 5.047 microns (Run 3, stir time 4 min); 5.048 microns (Run 3, stir time 5 min); 5.283 microns (Run 4, stir time 1 min); 5.282 microns (Run 4, stir time 2 min); 5.283 microns (Run 4, stir time 3 min). Also, the D90 particle size reads like this: (Run 4, stir time 4 min) 5.284 microns; (Run 4, stir time 5 min) 5.281 microns.
As to `O=C1C(O)=C([C@H]2CC[C@H](c3ccc(Cl)cc3)CC2)C(=O)c2ccccc21` [Example 3, trans-2-[4-(4-chlorophenyl)cyclohexyl]-3-hydroxy-1,4-naphthalenedione], the D90 particle size is, setting by setting: under setting [1], 4.280 microns; (Run 1, stir time 2 min) 4.280 microns; (Run 1, stir time 3 min) 4.280 microns; (Run 1, stir time 4 min) 4.280 microns; (Run 1, stir time 5 min) 4.280 microns; (Run 2, stir time 1 min) 4.260 microns. Moreover, the D90 particle size reads like this: (Run 2, stir time 2 min) 4.260 microns; (Run 2, stir time 3 min) 4.261 microns; (Run 2, stir time 4 min) 4.261 microns; (Run 2, stir time 5 min) 4.260 microns; (Run 3, stir time 1 min) 4.124 microns; (Run 3, stir time 2 min) 4.124 microns. The D90 particle size was determined as 4.123 microns (Run 3, stir time 3 min); 4.123 microns (Run 3, stir time 4 min); 4.125 microns (Run 3, stir time 5 min); 4.285 microns (Run 4, stir time 1 min); 4.285 microns (Run 4, stir time 2 min); 4.286 microns (Run 4, stir time 3 min). This compound returned a D90 particle size (Run 4, stir time 4 min) of 4.286 microns and a D90 particle size (Run 4, stir time 5 min) of 4.286 microns.
On to `O=C1C(O)=C([C@H]2CC[C@H](c3ccc(Cl)cc3)CC2)C(=O)c2ccccc21` [Example 2, trans-2-[4-(4-chlorophenyl)cyclohexyl]-3-hydroxy-1,4-naphthalenedione], for which the D90 particle size is, setting by setting: under setting [1], 6.177 microns; (Run 1, stir time 2 min) 6.176 microns; (Run 1, stir time 3 min) 6.175 microns; (Run 1, stir time 4 min) 6.176 microns; (Run 1, stir time 5 min) 6.176 microns; (Run 2, stir time 1 min) 6.258 microns. The D90 particle size turned out to be 6.257 microns (Run 2, stir time 2 min); 6.258 microns (Run 2, stir time 3 min); 6.260 microns (Run 2, stir time 4 min); 6.259 microns (Run 2, stir time 5 min); 6.338 microns (Run 3, stir time 1 min); 6.339 microns (Run 3, stir time 2 min). For the same compound, the D90 particle size was determined as 6.336 microns (Run 3, stir time 3 min); 6.339 microns (Run 3, stir time 4 min); 6.337 microns (Run 3, stir time 5 min); 6.572 microns (Run 4, stir time 1 min); 6.572 microns (Run 4, stir time 2 min); 6.572 microns (Run 4, stir time 3 min). The D90 particle size is, setting by setting: (Run 4, stir time 4 min) 6.569 microns; (Run 4, stir time 5 min) 6.571 microns.
Turning to `O=C1C(O)=C([C@H]2CC[C@H](c3ccc(Cl)cc3)CC2)C(=O)c2ccccc21` [Example 4, trans-2-[4-(4-chlorophenyl)cyclohexyl]-3-hydroxy-1,4-naphthalenedione], the D90 particle size was 4.651 microns under setting [1]; 4.652 microns (Run 1, stir time 2 min); 4.652 microns (Run 1, stir time 3 min); 4.653 microns (Run 1, stir time 4 min); 4.651 microns (Run 1, stir time 5 min); 4.628 microns (Run 2, stir time 1 min). The compound further returned a D90 particle size (Run 2, stir time 2 min) of 4.628 microns; a D90 particle size (Run 2, stir time 3 min) of 4.629 microns; a D90 particle size (Run 2, stir time 4 min) of 4.631 microns; a D90 particle size (Run 2, stir time 5 min) of 4.630 microns; a D90 particle size (Run 3, stir time 1 min) of 4.836 microns; a D90 particle size (Run 3, stir time 2 min) of 4.836 microns. The D90 particle size (Run 3, stir time 3 min) stood at 4.837 microns; the D90 particle size (Run 3, stir time 4 min) stood at 4.836 microns; the D90 particle size (Run 3, stir time 5 min) worked out at 4.984 microns; the D90 particle size (Run 4, stir time 1 min) stood at 4.814 microns; the D90 particle size (Run 4, stir time 2 min) was determined as 4.814 microns; the D90 particle size (Run 4, stir time 3 min) is 4.815 microns. Besides, the D90 particle size by setting is: (Run 4, stir time 4 min) 4.814 microns; (Run 4, stir time 5 min) 4.814 microns.
